Reference: the NIST ThermoML archive (doi:10.1016/j.jct.2017.11.007)

Assay: mn = molality of the nth substance listed, in mol/kg
Details: 74.66 kPa, Liquid; for speed of sound: Frequency=3 MHz, Single path-length method; for mass density: Vibrating tube method

Cc1ccnc([N-]S(=O)(=O)c2ccc(N)cc2)n1.[Na+] + O
Details	mass density [kg/m3]	speed of sound [m/s]
278.15 K, m1 = 0.005	1000.56	1428.1
278.15 K, m1 = 0.008	1000.91	1428.7
278.15 K, m1 = 0.01	1001.15	1429.2
278.15 K, m1 = 0.01486	1001.72	1430.2
278.15 K, m1 = 0.02002	1002.33	1431
278.15 K, m1 = 0.025	1002.91	1432.2
278.15 K, m1 = 0.03001	1003.5	1433.4
278.15 K, m1 = 0.035	1004.08	1434.2
278.15 K, m1 = 0.03931	1004.59	1435.5
278.15 K, m1 = 0.045	1005.25	1436.4
278.15 K, m1 = 0.05	1005.83	1437.5
278.15 K, m1 = 0.05502	1006.42	1438.5
278.15 K, m1 = 0.05998	1007	1439.4
283.15 K, m1 = 0.005	1000.28	1448.9
283.15 K, m1 = 0.008	1000.63	1449.4
283.15 K, m1 = 0.01	1000.87	1449.8
283.15 K, m1 = 0.01486	1001.42	1450.8
283.15 K, m1 = 0.02002	1002.02	1451.6
283.15 K, m1 = 0.025	1002.6	1452.7
283.15 K, m1 = 0.03001	1003.18	1453.7
283.15 K, m1 = 0.035	1003.75	1454.6
283.15 K, m1 = 0.04002	1004.33	1455.6
283.15 K, m1 = 0.045	1004.9	1456.7
283.15 K, m1 = 0.04968	1005.43	1457.4
283.15 K, m1 = 0.05502	1006.05	1458.5
283.15 K, m1 = 0.05998	1006.62	1459.4
288.15 K, m1 = 0.005	999.679	1467.5
288.15 K, m1 = 0.008	1000.02	1467.8
288.15 K, m1 = 0.01	1000.25	1468.2
288.15 K, m1 = 0.01486	1000.8	1469.3
288.15 K, m1 = 0.02002	1001.39	1469.9
288.15 K, m1 = 0.025	1001.96	1470.9
288.15 K, m1 = 0.03001	1002.53	1471.8
288.15 K, m1 = 0.035	1003.09	1472.7
288.15 K, m1 = 0.04002	1003.66	1473.7
288.15 K, m1 = 0.04499	1004.23	1474.6
288.15 K, m1 = 0.05	1004.8	1475.4
288.15 K, m1 = 0.05501	1005.37	1476.5
288.15 K, m1 = 0.05998	1005.94	1477.2
293.15 K, m1 = 0.005	998.778	1483.7
293.15 K, m1 = 0.008	999.118	1484
293.15 K, m1 = 0.01	999.342	1484.4
293.15 K, m1 = 0.01486	999.886	1485.3
293.15 K, m1 = 0.02002	1000.47	1486.1
293.15 K, m1 = 0.025	1001.03	1487
293.15 K, m1 = 0.03001	1001.59	1487.8
293.15 K, m1 = 0.035	1002.15	1488.6
293.15 K, m1 = 0.04002	1002.71	1489.5
293.15 K, m1 = 0.04499	1003.27	1490.3
293.15 K, m1 = 0.05	1003.84	1491.2
293.15 K, m1 = 0.05501	1004.4	1492
293.15 K, m1 = 0.05998	1004.96	1492.8
298.15 K, m1 = 0.005	997.615	1497.8
298.15 K, m1 = 0.008	997.95	1498.2
298.15 K, m1 = 0.01	998.172	1498.5
298.15 K, m1 = 0.01486	998.708	1499.3
298.15 K, m1 = 0.02002	999.286	1500
298.15 K, m1 = 0.025	999.841	1500.9
298.15 K, m1 = 0.03001	1000.39	1501.7
298.15 K, m1 = 0.035	1000.95	1502.5
298.15 K, m1 = 0.04002	1001.5	1503.3
298.15 K, m1 = 0.04499	1002.05	1504.1
298.15 K, m1 = 0.05	1002.61	1504.8
298.15 K, m1 = 0.05501	1003.17	1505.7
298.15 K, m1 = 0.05998	1003.73	1506.5
303.15 K, m1 = 0.005	996.212	1510
303.15 K, m1 = 0.008	996.544	1510.5
303.15 K, m1 = 0.01	996.764	1510.8
303.15 K, m1 = 0.01486	997.296	1511.6
303.15 K, m1 = 0.02002	997.863	1512.3
303.15 K, m1 = 0.025	998.416	1513.1
303.15 K, m1 = 0.03001	998.961	1513.8
303.15 K, m1 = 0.035	999.509	1514.6
303.15 K, m1 = 0.04002	1000.06	1515.3
303.15 K, m1 = 0.04499	1000.61	1516.1
303.15 K, m1 = 0.05	1001.16	1516.8
303.15 K, m1 = 0.05501	1001.71	1517.6
303.15 K, m1 = 0.05998	1002.26	1518.3
308.15 K, m1 = 0.005	994.593	1520.6
308.15 K, m1 = 0.008	994.922	1521.1
308.15 K, m1 = 0.01	995.14	1521.4
308.15 K, m1 = 0.01486	995.663	1522.1
308.15 K, m1 = 0.02002	996.227	1522.8
308.15 K, m1 = 0.025	996.774	1523.5
308.15 K, m1 = 0.03001	997.316	1524.2
308.15 K, m1 = 0.035	997.858	1524.9
308.15 K, m1 = 0.04002	998.402	1525.7
308.15 K, m1 = 0.04499	998.941	1526.3
308.15 K, m1 = 0.05	999.494	1527.1
308.15 K, m1 = 0.05501	1000.03	1527.8
308.15 K, m1 = 0.05998	1000.58	1528.4
